Earlier results as cited in US4894388A, “Glycosidase inhibitors and use thereof” (priority 1988, dated 1990).

test system: human immunodeficiency virus (HIV); settings: background literature; cited from earlier work

**Q.** For OC[C@H]1NC[C@H](O)[C@@H](O)[C@@H]1O [1-deoxynojirimycin (DNJ), 1-deoxynojirimycin], which “inhibition of HIV synctium formation and virus replication (in words)” value (“inhibition” for short) is on record?
**A.** found to inhibit human immunodeficiency virus (HIV) synctium formation and virus replication

**Q.** For OCC1NC(CO)C(O)C1O (stereo not drawn) [2,5-dihydroxymethyl-3,4-dihydroxypyrrolidine], which “inhibition” value is on record?
**A.** found to inhibit human immunodeficiency virus (HIV) synctium formation and virus replication

**Q.** With O[C@H]1[C@H](O)[C@@H](O)CN2CC[C@H](O)[C@H]12 [castanospermine] as the compound, how does the “inhibition” value read?
**A.** found to inhibit human immunodeficiency virus (HIV) synctium formation and virus replication
